Assays:
Assay type in all cases: biochemical
[1] = biological target: T1, recombinant UAT (urate transporter/channel) (Rattus norvegicus, UniProt P97840, L187H); test: Channel activity of recombinant rat UAT reconstituted in planar lipid bilayer (patch clamp recording); details: for effect on channel activity, cis (cytoplasmic) side: agent added to cis chamber / cytoplasmic side of UAT; for concentration that completely blocked channel activity: agent in trans chamber (extracellular side of UAT); for reversibility of block of channel activity: replacing the agent-containing solution with agent-free urate solution
T1 construct: 6-histidine metal chelating domain (pRSET A leader) (N); made in house; host or cells: E. coli BL21(DE3)pLysE, vector pRSET A
T1 sequence (P97840 1-322 isoform P97840-2 L155H): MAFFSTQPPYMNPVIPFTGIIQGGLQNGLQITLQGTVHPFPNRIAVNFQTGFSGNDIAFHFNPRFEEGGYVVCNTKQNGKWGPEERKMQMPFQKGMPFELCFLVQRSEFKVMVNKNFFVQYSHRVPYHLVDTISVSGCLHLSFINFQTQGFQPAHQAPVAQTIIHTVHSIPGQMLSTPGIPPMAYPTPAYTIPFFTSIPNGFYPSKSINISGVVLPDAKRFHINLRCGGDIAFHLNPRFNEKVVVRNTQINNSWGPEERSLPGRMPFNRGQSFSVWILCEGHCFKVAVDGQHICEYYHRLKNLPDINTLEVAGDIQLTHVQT
Description: (§1) A mixture of bovine phosphatidyl-ethanolamine (PE, 10 mg/ml), and phosphatidylserine (PS, 10 mg/ml) (Avanti Polar Lipids, Birmingham. Ala.) in a ratio of 1:1 (wt/wt) was evaporated to dryness under nitrogen. The resultant phospholipid pellet was suspended in 48 μl of a solution containing 220 mM KCl, CsCl or Cs2SO4 and 10 mM HEPES-NaOH at pH 7.4. Following the addition of 2 μl recombinant UAT protein (50-100 μg/ml), proteoliposomes were formed by sonicating the mixture for 30 sec at 80 kHz in a bath sonicator (Laboratory Supplies, Hicksville, N.Y.) as described by Leal-Pinto et al. (1995) J. Membrane Biol. 146:123. In some experiments, proteoliposomes were prepared with the same lipids but with 10 μl recombinant HIV-1 Tat protein, as described by Zagury et al. (1996) Cellular Pharm.—AIDS Sciences 3:97 at 380 μg/ml and 40 μl of 220 mM Cs2SO4, 10 mM HEPES-NaOH at pH 7.4. Fresh proteoliposomes were prepared for each experiment.
(§2) The lipid bilayer chamber was identical to that described by Leal-Pinto et al. (1995) J. Membrane Biol. 146:123. The two cups of the plexiglass bilayer chamber were each initially filled with 1 ml of a solution whose electrolyte composition was identical to that in which the proteoliposomes were prepared. A 1:1 (wt/wt) mixture of bovine brain PE (10 mg/ml) and PS (10 mg/ml) (Avanti Polar Lipids) was dried with a nitrogen stream, dissolved in decane (Sigma Chemical Co.) to 50 mg lipid/ml and then painted with a club-shaped glass rod onto a 50 um hole in a Teflon film (Type C-20, 12.5 um thick, Dupont Electronics, Wilmington, Del.) that was fitted between the two cups of the chamber. Offset potentials due to all junction potentials were corrected by using the zero adjust system of the patch clamp amplifier (Model PC-501, Warner Instrument Co.). The voltage was subsequently clamped at varying levels (−100 to +100 mV): voltage was generated and controlled by the patch clamp amplifier. If a stable resistance of at least 100 gigohms and a noise of less than 0.2 pA were maintained, the experiments were initiated.
(§3) Experiments were initiated by adding proteoliposomes to the trans chamber (1 μl of UAT or 5-50 μl of HIV-1 Tat proteoliposomes). The solution was stirred until fusion occurred. Fusion usually occurred within 2-3 minutes of the addition of UAT-containing proteoliposomes, evidenced by the presence of channel gating (clear transitions between the closed and open states). Once fusion occurred the stirrers were stopped and the solution in the trans chamber was replaced with 1 ml of an identical solution, without proteoliposomes, to limit further channel incorporation. In all experiments channel activity was initially evaluated in the presence of symmetrical solutions of 2.5 mM urate in either 220 mM KCl, CsCl, or Cs2SO4, 10 mM HEPES-NaOH, and 0.25 mM CaCl2 at pH 7.4. In some experiments channel activity was compared in the absence and presence of 5 mM Ba^+−. To evaluate channel selectivity, experiments were performed in symmetrical solutions of 2.5 mM urate, but with infinite gradients of K^+, Cs^−, Ca^−−, Cl^− and/or SO4^═ established by using the following combination of buffered solutions in the cis and trans chambers, respectively: a) CsCl and KCl, b) Cs2SO4 and CsCl, and c) Cs2SO4 with Ca^−+ and Cs2SO4 without Ca^−+. Selectivity was also evaluated in symmetrical solutions of 220 mM Cs2SO4, 10 mM HEPES-NaOH, and 0.25 mM CaCl2 at pH 7.4 in the presence of a 10:1 urate gradient: the 2.5 mM urate, buffered Cs2SO4 solution in the trans chamber was replaced with a Cs2SO4 solution containing 0.25 mM urate. In a final group of experiments, channel activity was compared in symmetrical solutions of 2.5 mM urate, 220 mM Cs2SO4, 10 mM HEPES-NaOH, and 0.25 mM CaCl2 at pH 7.4 before and after an increasing amount of non-immune IgG (up to 200 μg) or the IgG fraction of antiporcine uricase (up to 15 μg) was sequentially added to each side of the lipid bilayer. […]

[2] = biological target: T2, hUAT (human urate transporter/channel, galectin 9) (Homo sapiens, UniProt O00182); test: Channel activity of recombinant human UAT (galectin 9) reconstituted in lipid bilayer
T2 construct: 6-histidine tag (N); made in house
T2 sequence (O00182 1-323 isoform O00182-2): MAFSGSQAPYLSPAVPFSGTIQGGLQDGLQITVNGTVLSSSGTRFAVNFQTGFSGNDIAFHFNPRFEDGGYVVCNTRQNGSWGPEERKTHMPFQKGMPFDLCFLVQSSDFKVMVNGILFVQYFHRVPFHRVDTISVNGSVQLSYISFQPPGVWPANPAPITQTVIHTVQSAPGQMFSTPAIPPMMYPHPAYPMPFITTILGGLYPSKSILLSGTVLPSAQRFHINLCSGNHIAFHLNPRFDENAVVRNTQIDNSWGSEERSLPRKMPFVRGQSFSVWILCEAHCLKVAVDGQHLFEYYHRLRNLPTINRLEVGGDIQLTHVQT
Description: Galactin 9 was reported to be a secreted neutrophil chemoattractant. However, galectin 9 has more than 75% amino acid homology to the rat urate transporter/channel. To test whether galectin 9 is the human plasma membrane-associated urate transporter channel, cDNA was generated by RT-PCR of RNA from WBC of a normal donor and fused with an amino terminal 6-histidine tag in a bacterial expression vector. Recombinant protein (hUAT) was prepared and then purified on a Ni-NTA column. hUTA was sonicated into liposomes, fused with a lipid bilayed, and channel activity was recorded. Channel activity was only detected in the presence of urate. […] This difference in voltage sensitivity is consistent with the absence of a positively charged amino acid in hUAT in a region of the putative voltage sensing loop within rat UAT.
In a continued search for local blocks of homology between rat and human UAT and known proteins, a highly significant block of homology to copper chaperones was detected in the carboxy terminus of both the rat and human UAT. Based on the possibility that this portion of UAT binds copper, like copper chaperones, experiments were conducted to determine whether copper was able to modulate UAT channel activity. Using rat and human recombinant UAT it was observed that copper plays an important role in modulating channel activity.
The rat and human urate transporter/channel amino acid sequence contains two galactose binding sites. In the molecular model of the urate transporter/channel, both of these sites reside in extracellular domains of the protein. One site is located between the putative first and second transmembrane domain, the second is located between the putative third and fourth transmembrane domains. Experiments indicate that the addition of lactose (less than 50 μM) to the side of the bilayer chamber that is believed to face the extracellular domains of the protein alters the biophysical properties of the human urate transporter channel. […] In vivo, this could result in increased urate excretion and ultimately a reduction in plasma urate concentration.

[3] = biological target: T3, recombinant UAT (urate transporter/channel) (Rattus norvegicus, UniProt P97840); test: Channel activity of recombinant rat UAT reconstituted in planar lipid bilayer (patch clamp recording); details: 2.5 mM urate cis : 2.5 mM oxonate trans
T3 construct: 6-histidine metal chelating domain (pRSET A leader) (N); made in house; host or cells: E. coli BL21(DE3)pLysE, vector pRSET A
T3 sequence (P97840 1-322 isoform P97840-2 L155H): as the sequence (P97840 1-322 isoform P97840-2 L155H) above
Description: as §1, §2, §3

[4] = less than 1 μM copper added to the bathing solution
[5] = less than 50 μM on the side facing the extracellular domains

SMILES: [Ba+2] [Ba^+−]
- effect on channel activity ([1]; 5 mM, symmetrical 2.5 mM urate and 220 mM KCl): failed to alter channel activity

SMILES: O=C(O)c1cnccn1 [PZA, pyrazinoate]
- effect on channel activity, cis (cytoplasmic) side [1]: without effect
- concentration that completely blocked channel activity ([1]; mean±SE): 24.1 ± 8.9 µM
- reversibility of block of channel activity [1]: reversed

SMILES: Nc1ncnc2c1ncn2[C@@H]1O[C@H](CO)[C@@H](O)[C@H]1O [adenosine]
- effect on channel activity from the trans side of the bilayer [2]: blocked channel activity
- effect on channel activity, cis (cytoplasmic) side [1]: failed to block channel activity
- concentration that completely blocked channel activity ([1]; mean±SE): 4.6 ± 2.6 µM

SMILES: [Cu] [copper]
- effect on channel activity [2, 4]: significantly increases channel activity
- open probability of the human channel after addition ([2]; less than 1 μM copper, from 5-15% before addition): 50-60%
- effect on channel activity [1, 4]: significantly increases channel activity

SMILES: OC[C@H]1O[C@@H](O[C@H]2[C@H](O)[C@@H](O)C(O)O[C@@H]2CO)[C@H](O)[C@@H](O)[C@H]1O (some centres unmarked) [lactose]
- effect on current [2, 5]: increase in current
- effect on stability of the channel in the lipid bilayer [2, 5]: apparent stabilization of the channel

SMILES: O=C(O)c1nc(=O)[nH]c(=O)[nH]1 [oxonate]
- effect on channel activity, trans side ([1]; 250 μM on the trans side of the channel, symmetrical urate): not affected
- concentration at which channel activity was 97% blocked ([1]; oxonate in cis (cytoplasmic) chamber, symmetrical 2.5 mM urate, mean±SE, n=3): 108 ± 16 µM
- reversibility of block of channel activity [1]: reversed
- channel activity under bi-ionic conditions [3]: ceased after approximately one hour

SMILES: NC(=O)c1cnccn1 [pyrazinamide]
- effect on channel activity from the trans side of the bilayer [2]: blocked channel activity

SMILES: O=c1[nH]c(=O)c2[nH]cnc2[nH]1 [xanthine]
- effect on channel activity, cis (cytoplasmic) side [1]: blocked channel activity
- concentration that completely blocked channel activity ([1]; mean±SE): 4.6 ± 1.5 µM
- ratio of blocking concentration, extracellular side versus cytoplasmic face ([1]; complete block of channel activity): approximately one-tenth

Reference: patent publication US6551796B1, “Nucleic acid encoding urate transporter and methods of use thereof” (Mount Sinai School of Medicine, priority 1997, dated 2003)
